Patent US20230103631A1, “PEPTIDES AS SELECTIVE GIP RECEPTOR AGONISTS” (Sanofi, priority 2020, published 2023)
*1 amine or outer side, *2 acyl side, *3 side chain or, on linkers, in order; H or OH if unused. Where a SMILES comes first, the peptide text is derived from it. Side-chain parts run from the residue outwards. [ ]: non-standard residue; d: D form. The star is where a group is joined. C18 diacid = O=C(O)CCCCCCCCCCCCCCCCC(=O)*; γGlu = O=C(O)[C@H](CCC(=O)[*:2])N[*:1]; AEEA = NCCOCCOCC(=O)O; Aib = CC(C)(N)C(=O)O

Tests used:
[1] = Dynamic light scattering (DLS) for the assessment of physical stability; assay type: physicochemical
Description: A monochromatic and coherent light beam (laser) is used to illuminate the liquid sample. Dynamic Light Scattering (DLS) measures light scattered from particles (1 nm≤radius≤1 μm) that undergo Brownian motion. This motion is induced by collisions between the particles and solvent molecules, that themselves are moving due to their thermal energy. The diffusional motion of the particles results in temporal fluctuations of the scattered light (R. Pecora, Dynamic Light Scattering: Applications of Photon Correlation Spectroscopy, Plenum Press, 1985).
The scattered light intensity fluctuations are recorded and transformed into an autocorrelation function. By fitting the autocorrelation curve to an exponential function, the diffusion coefficient D of the particles in solution can be derived. The diffusion coefficient is then used to calculate the hydrodynamic radius Rh (or apparent Stokes radius) through the Stokes-Einstein equation assuming spherical particles. This calculation is defined in ISO 13321 and ISO 22412 (International Standard ISO13321 Methods for Determination of Particle Size Distribution Part 8: Photon Correlation Spectroscopy, International Organisation for Standardisation (ISO) 1996; International Standard ISO22412 Particle Size Analysis—Dynamic Light Scattering, International Organisation for Standardisation, 2008).
In case of polydisperse samples, the autocorrelation function is the sum of the exponential decays corresponding to each of the species. The temporal fluctuations of the scattered light can then be used to determine the size distribution profile of the particle fraction or family. The first order result is an intensity distribution of scattered light as a function of the particle size. The intensity distribution is naturally weighted according to the scattering intensity of each particle fraction or family. For biological materials or polymers, the particle scattering intensity is proportional to the square of the molecular weight. Thus, small amount of aggregates/agglomerates or presence or a larger particle species can dominate the intensity distribution. However, this distribution can be used as a sensitive detector for the presence of large material in the sample.
The DLS technique produces distributions with inherent peak broadening. The polydispersity index % Pd is a measure of the width of the particle size distribution and is calculated by standard methods described in ISO13321 and ISO22412 [International Standard ISO13321 Methods for Determination of Particle Size Distribution Part 8: Photon Correlation Spectroscopy, International Organisation for Standardisation (ISO) 1996; International Standard ISO22412 Particle Size Analysis—Dynamic Light Scattering, International Organisation for Standardisation (ISO) 2008].
Solutions from solid samples were prepared in buffer systems (see below) with a target concentration of 300 μM compound based on the previously determined % purity.
DLS buffer system A) 20 mM phosphate buffer pH 7.4
DLS buffer system B) 8 mM phosphate buffer pH 7.4, 14 mg/ml propylene glycol, 5.5 mg/ml phenol
DLS buffer system C) 100 mM phosphate buffer pH 7.4, 2.7 mg/ml m-cresol Solutions were filtered through 0.22 μm pore size and filled into sterilized glass containers under laminar flow conditions. For every peptide solution, the apparent hydrodynamic radius (Rh), the corresponding Scattering Intensity (I), and the Mass Contribution (M) were determined as an average over 3-6 replicates from the intensity distribution of the scattered light averaging only high-quality measurements. Relative standard deviations (RSD) for these parameters were calculated from the same number of replicates. […]

[2] = target: T1, human GIP receptor (hGIPR) (Homo sapiens, UniProt P48546); assay: Binding assay, displacement of [125I]GIP from HEK-293 membranes expressing GIPR; conditions: [125I]GIP displacement
T1 sequence (P48546 22-466): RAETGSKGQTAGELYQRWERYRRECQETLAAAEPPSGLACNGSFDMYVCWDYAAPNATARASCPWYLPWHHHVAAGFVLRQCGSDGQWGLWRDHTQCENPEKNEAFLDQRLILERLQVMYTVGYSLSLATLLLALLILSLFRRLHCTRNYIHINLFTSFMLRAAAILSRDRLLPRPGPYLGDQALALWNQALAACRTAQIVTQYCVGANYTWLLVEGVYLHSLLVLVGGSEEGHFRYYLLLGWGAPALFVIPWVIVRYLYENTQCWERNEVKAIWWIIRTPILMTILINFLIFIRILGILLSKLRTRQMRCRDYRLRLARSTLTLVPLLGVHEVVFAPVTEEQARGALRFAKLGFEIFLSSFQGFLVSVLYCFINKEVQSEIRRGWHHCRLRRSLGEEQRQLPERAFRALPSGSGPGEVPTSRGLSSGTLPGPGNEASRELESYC
Procedure: HEK-293 cells recombinantly over-expressing GIPR or GLP-1R were grown to 50% confluency, washed with warm 1×PBS (Gibco) and detached in HEPES/EDTA-buffer (100 mM HEPES pH 7.5, 5 mM EDTA). Cells were harvested by centrifugation at 4° C. and 3000×g and the pellets were stored at −80° C. until further processing.
After thawing on ice, pellets were resuspended in HEPES/EDTA-buffer and homogenized on ice for 1 min using Ultra-Turray T25. After subsequent sonification the cell debris was removed by centrifugation at 1000×g and 4° C. Supernatants were then ultra-centrifuged at 100000×g and 4° C. under vacuum for 30 min. Pellets were resuspended in HEPES/EDTA/NaCl-buffer (20 mM HEPES, 1 mM EDTA, 150 mM NaCl; add 1 Complete Mini Protease inhibitor cocktail to 10 ml buffer) and protein content was determined via BCA-Protein assay.

human GIP receptor = target: T2, human GIP receptor (Homo sapiens, UniProt P48546); assay: cAMP HTRF assay in human adipocytes endogenously expressing the human GIP receptor; assay type: cell-based; conditions: for Emax: read-out: hGIPR Emax
T2 construct: human adipocytes endogenously expressing the human GIP receptor; host or cells: human preadipocytes (Lonza) differentiated to adipocytes
T2 sequence (P48546 22-466): T1 sequence (P48546 22-466)
Procedure: For this, one vial of human preadipocytes (˜10^6 cells; Lonza) was thawed in a T-75 cell culture dish.
After 3 days, the cells were washed with PBS and 1.5 ml Trypsin, incubated for 4 min, then resuspended in medium, centrifugated for 10 min @ 300 rcf RT, resuspended again and distributed to four T-75 cell culture dishes.
After 5 days, the cells were washed with PBS and 1.5 ml Trypsin, incubated for 4 min, then resuspended in medium, centrifugated for 10 min @ 300 rcf RT, resuspended again and sawn in T-75 dishes (2.5×10^6 cells per dish) in 15 ml Differentiation medium each.
After 6 days of differentiation, 5000 cells per well were dispensed on a 96-well plate (#CLS3694 from Corning®, Sigma-Aldrich). For measurement of cAMP generation, 25 μL of test compound was added to each well of the 96-well plate, followed by incubation for 30 min at room temperature.
The cAMP generated following test compound stimulation was determined using a kit from Cisbio Corp. based on HTRF (Homogenous Time Resolved Fluorescence). The cAMP assay was performed according to manufacturer's instructions (Cisbio).
The cAMP content of cells was determined using a kit from Cisbio Corp. based on HTRF (Homogenous Time Resolved Fluorescence).

[3] = DLS buffer system A, 4 weeks storage at 40° C.
[4] = DLS buffer system B (phenol), 0 weeks
[5] = DLS buffer system B (phenol), 4 weeks storage at 40° C.

Structure (SMILES) | I and SD (Scattering Intensity) ([1]; DLS buffer system A, 0 weeks) | M and SD (Mass Contribution) ([1]; DLS buffer system A, 0 weeks) | apparent Rh and SD ([1]; DLS buffer system A, 0 weeks) | I and SD (Scattering Intensity) [1, 3] | M and SD (Mass Contribution) [1, 3] | apparent Rh and SD [1, 3] | IC50 [2] | EC50 (human GIP receptor; read-out: hGIPR EC50) | Emax (human GIP receptor) | I and SD (Scattering Intensity) [1, 4] | M and SD (Mass Contribution) [1, 4] | apparent Rh and SD [1, 4] | I and SD (Scattering Intensity) [1, 5] | M and SD (Mass Contribution) [1, 5] | apparent Rh and SD [1, 5]
CC[C@H](C)[C@H](NC(=O)[C@H](CCCNC(=N)N)NC(=O)[C@H](CC(=O)O)NC(=O)[C@H](CCCCNC(=O)COCCOCCNC(=O)COCCOCCNC(=O)CC[C@H](NC(=O)CCCCCCCCCCCCCCCCC(=O)O)C(=O)O)NC(=O)C(C)(C)NC(=O)[C@@H](NC(=O)[C@H](CO)NC(=O)[C@H](CC(C)C)NC(=O)[C@H](CC(=O)O)NC(=O)[C@H](CO)NC(=O)[C@@H](NC(=O)[C@H](Cc1ccccc1)NC(=O)[C@@H](NC(=O)CNC(=O)[C@H](CCC(=O)O)NC(=O)C(C)(C)NC(=O)[C@@H](N)Cc1ccc(O)cc1)[C@@H](C)O)[C@@H](C)CC)[C@@H](C)CC)C(=O)N[C@@H](Cc1c[nH]cn1)C(=O)N[C@@H](CCC(N)=O)C(=O)NC(C)(C)C(=O)N[C@@H](CCC(=O)O)C(=O)N[C@@H](Cc1ccccc1)C(=O)N[C@H](C(=O)N[C@@H](CCC(=O)O)C(=O)N[C@@H](Cc1c[nH]c2ccccc12)C(=O)N[C@@H](CC(C)C)C(=O)N[C@@H](CC(C)C)C(=O)N[C@@H](C)C(=O)N[C@@H](CCC(N)=O)C(=O)NCC(=O)N1CCC[C@H]1C(=O)N[C@@H](CO)C(=O)N[C@@H](CO)C(=O)NCC(=O)N[C@@H](C)C(=O)N1CCC[C@H]1C(=O)N1CCC[C@H]1C(=O)N1CCC[C@H]1C(=O)N[C@@H](CO)C(N)=O)[C@@H](C)CC [SEQ ID NO: 4, H2N-Y-Aib-E-G-T-F-I-S-D-I-S-I-Aib-K[{AEEA}2-gGlu-C18OH]-D-R-I-H-Q-Aib-E-F-I-E-W-I-L-A-Q-G-P-S-S-G-A-P-P-P-S-NH2] (H-Y[Aib]EGTFISDLSI[Aib]K([AEEA-AEEA-γGlu-C18 diacid])DRIHQ[Aib]EFIEWLLAQGPSSGAPPPS-NH2) | 93 ± 1% | 100 ± 0% | 1.91 ± 0.05 nm | 93 ± 1% | 100 ± 0% | 1.9 ± 0.04 nm | 0.2 nM | 0.5 nM | 116% | – | – | – | – | – | –
CC[C@H](C)[C@H](NC(=O)[C@H](Cc1ccccc1)NC(=O)[C@H](CCC(=O)O)NC(=O)[C@H](CCC(=O)O)NC(=O)[C@H](CCC(N)=O)NC(=O)[C@H](Cc1c[nH]cn1)NC(=O)[C@@H](NC(=O)[C@H](CCCNC(=N)N)NC(=O)[C@H](CC(=O)O)NC(=O)[C@H](CCCCNC(=O)COCCOCCNC(=O)COCCOCCNC(=O)CC[C@H](NC(=O)CCCCCCCCCCCCCCCCC(=O)O)C(=O)O)NC(=O)C(C)(C)NC(=O)[C@@H](NC(=O)[C@H](CO)NC(=O)[C@H](CC(C)C)NC(=O)[C@H](CC(=O)O)NC(=O)[C@H](CO)NC(=O)[C@@H](NC(=O)[C@H](Cc1ccccc1)NC(=O)[C@@H](NC(=O)CNC(=O)[C@H](CCC(=O)O)NC(=O)C(C)(C)NC(=O)[C@@H](N)Cc1ccc(O)cc1)[C@@H](C)O)[C@@H](C)CC)[C@@H](C)CC)[C@@H](C)CC)C(=O)N[C@@H](CCC(=O)O)C(=O)N[C@@H](Cc1c[nH]c2ccccc12)C(=O)N[C@@H](CC(C)C)C(=O)N[C@@H](CC(C)C)C(=O)N[C@@H](C)C(=O)N[C@@H](CCC(N)=O)C(=O)NCC(=O)N1CCC[C@H]1C(=O)N[C@@H](CO)C(=O)N[C@@H](CO)C(=O)NCC(=O)N[C@@H](C)C(=O)N1CCC[C@H]1C(=O)N1CCC[C@H]1C(=O)N1CCC[C@H]1C(=O)N[C@@H](CO)C(N)=O [SEQ ID NO: 9, H2N-Y-Aib-E-G-T-F-I-S-D-I-S-I-Aib-K[{AEEA}2-gGlu-C18OH]-DRIHQEEFIEWILAQGPSSGAPPPS-NH2] (H-Y[Aib]EGTFISDLSI[Aib]K([AEEA-AEEA-γGlu-C18 diacid])DRIHQEEFIEWLLAQGPSSGAPPPS-NH2) | 80 ± 3% | 100 ± 0% | 1.86 ± 0.03 nm | 80 ± 3% | 100 ± 0% | 1.87 ± 0.03 nm | – | – | 125% | 82 ± 3% | 100 ± 0% | 1.85 ± 0.04 nm | 97 ± 4% | 100 ± 0% | 1.73 ± 0.03 nm
